In patent publication US11866414B2, “Substituted heterocyclic compounds” (BRISTOL-MYERS SQUIBB COMPANY, priority 2021, dated 2024) one finds Papp A→B, efflux ratio and IC50 data, which are given here for 15 compounds.

A short description of one series: in vitro. The note with it: human, Caco-2, pH 7.4.
Series [1] concerns IFNα-induced STAT phosphorylation (pSTAT5). Kind of series: IFNα-induced STAT phosphorylation in human whole blood. The format is cell-based. The note with it: 1 h compound, 1000 U/mL IFNα A/D 15 min, CD3 positive population, read-out: Human Whole blood IFNa pSTAT5 IC50. On the procedure: IFNα-Induced STAT Phosphorylation in Human Whole Blood
After an hour long incubation with compound, human whole blood (drawn with ACD-A as anticoagulant) was stimulated with 1000 U/mL recombinant human IFNα A/D (R&D Systems 11200-2) for 15 min. The stimulation was stopped by adding Fix/Lyse buffer (BD 558049). Cells were stained with a CD3 FITC antibody (BD 555916), washed, and permeabilized on ice using Perm III buffer (BD 558050). Cells were then stained with an Alexa-Fluor 647 pSTAT5 (pY694) antibody (BD 612599) for 60 min prior to analysis on the iQue Plus. The amount of pSTAT5 expression was quantitated by median fluorescence intensity after gating on the CD3 positive population.

pIC50: −log10 of the molar value.

Regarding `[2H]C([2H])([2H])NC(=O)c1nnc(NC(=O)C2CC2)cc1Nc1cccc(-c2nn(C)nc2C)c1OC` [Example 23, 6-(cyclopropane-carboxamido)-4-((3-(2,5-dimethyl-2H-1,2,3-triazol-4-yl)-2-methoxyphenyl)amino)-N-(methyl-d3)pyridazine-3-carboxamide], in the series “in vitro”, the Papp A→B at 2 h, 3 μM stood at 29.5 ×10⁻⁶ cm/s and the efflux ratio at 2 h, 3 μM stood at 1.2. In series [1], the pIC50 was 6.74.
In the case of `[2H]C([2H])([2H])NC(=O)c1nnc(Nc2ccn(C)n2)cc1Nc1cccc(-c2cnn(C)n2)c1OC` [Example 25, 4-((2-methoxy-3-(2-methyl-2H-1,2,3-triazol-4-yl)phenyl)amino)-N-(methyl-d3)-6-((1-methyl-1H-pyrazol-3-yl)amino)pyridazine-3-carboxamide], in the series “in vitro”, the apparent permeability from apical to basolateral (Papp A→B) at 2 h, 3 μM came out at 1.9 ×10⁻⁶ cm/s and the efflux ratio at 2 h, 3 μM is 1.2. Also, the pIC50 in series [1] was 7.22.
The matching figures for `[2H]C([2H])([2H])NC(=O)c1nnc(NC(=O)[C@@H]2C[C@@H]2C)cc1Nc1cccc(-c2cnn(C)n2)c1OC` [Example 26, 4-((2-methoxy-3-(2-methyl-2H-1,2,3-triazol-4-yl)phenyl)amino)-N-(methyl-d3)-6-((1R,2S)-2-methylcyclopropane-1-carboxamido)pyridazine-3-carboxamide]: 33.4 ×10⁻⁶ cm/s, 0.6 and 7.22.
The matching figures for `[2H]C([2H])([2H])NC(=O)c1nnc(NC(=O)C2CC2)cc1Nc1cccc(-c2nn(C3CC3)nc2C)c1OC` [Example 27, 6-(cyclopropanecarboxamido)-4-((3-(2-cyclopropyl-5-methyl-2H-1,2,3-triazol-4-yl)-2-methoxyphenyl)amino)-N-(methyl-d3)pyridazine-3-carboxamide]: 20.5 ×10⁻⁶ cm/s, 0.8 and 6.68.
For the compound `[2H]C([2H])([2H])NC(=O)c1nnc(NC(=O)OCC)cc1Nc1cccc(-c2cnn(C)n2)c1OC` [Example 28, ethyl (5-((2-methoxy-3-(2-methyl-2H-1,2,3-triazol-4-yl)phenyl)amino)-6-((methyl-d3)carbamoyl)pyridazin-3-yl)carbamate], in the series “in vitro”, the Papp A→B at 2 h, 3 μM is 28 ×10⁻⁶ cm/s and the efflux ratio at 2 h, 3 μM was 0.5. The negative-log IC50 (pIC50) in series [1] was 6.43.
For `[2H]C([2H])([2H])NC(=O)c1nnc(NC(=O)[C@@H]2C[C@H]2F)cc1Nc1cccc(-c2cnn(C)n2)c1OC` [Example 29, 6-((1S,2R)-2-fluorocyclopropane-1-carboxamido)-4-((2-methoxy-3-(2-methyl-2H-1,2,3-triazol-4-yl)phenyl)amino)-N-(methyl-d3)pyridazine-3-carboxamide], in “in vitro”, the Papp A→B at 2 h, 3 μM is 37.9 ×10⁻⁶ cm/s and the efflux ratio at 2 h, 3 μM amounted to 0.5. The pIC50 in series [1] is 7.30.
Turning to `[2H]C([2H])([2H])NC(=O)c1nnc(NC(=O)[C@H]2C[C@H]2C)cc1Nc1cccc(-c2cnn(C)n2)c1OC` [Example 30, 4-((2-methoxy-3-(2-methyl-2H-1,2,3-triazol-4-yl)phenyl)amino)-N-(methyl-d3)-6-((1S,2R)-2-methylcyclopropane-1-carboxamido)-pyridazine-3-carboxamide], in “in vitro”, the Papp A→B at 2 h, 3 μM worked out at 29.9 ×10⁻⁶ cm/s and the efflux ratio at 2 h, 3 μM came out at 0.7. Also, the pIC50 in series [1] is 7.22.
Turning to `[2H]C([2H])([2H])NC(=O)c1nnc(NC(=O)C2CC2(F)F)cc1Nc1cccc(-c2cnn(C)n2)c1OC` (stereo not drawn) [Example 31, 6-(2,2-difluorocyclopropane-1-carboxamido)-4-((2-methoxy-3-(2-methyl-2H-1,2,3-triazol-4-yl)phenyl)amino)-N-(methyl-d3)pyridazine-3-carboxamide], in “in vitro”, the apparent permeability from apical to basolateral (Papp A→B) at 2 h, 3 μM was found to be 31.3 ×10⁻⁶ cm/s and the efflux ratio at 2 h, 3 μM was 0.8. In series [1], the pIC50 is 6.96.
Consider `[2H]C([2H])([2H])NC(=O)c1nnc(NC(=O)C2CC2)cc1Nc1cc(C(=O)OC)cc(-c2cnn(C)n2)c1OC` [Example 32, methyl 3-((6-(cyclopropanecarboxamido)-3-((methyl-d3)carbamoyl)-pyridazin-4-yl)amino)-4-methoxy-5-(2-methyl-2H-1,2,3-triazol-4-yl)benzoate], for which, in “in vitro”, the Papp A→B at 2 h, 3 μM stood at 19.5 ×10⁻⁶ cm/s and the efflux ratio at 2 h, 3 μM was found to be 0.9. Besides, the pIC50 in series [1] was 6.66.
With `[2H]C([2H])([2H])NC(=O)c1nnc(NC(=O)C2CC2)cc1Nc1ccc(C)c(-c2cnn(C)n2)c1OC` [Example 33, 6-(cyclopropanecarboxamido)-4-((2-methoxy-4-methyl-3-(2-methyl-2H-1,2,3-triazol-4-yl)phenyl)amino)-N-(methyl-d3)pyridazine-3-carboxamide], in “in vitro”, the Papp A→B at 2 h, 3 μM was determined as 34.5 ×10⁻⁶ cm/s and the efflux ratio at 2 h, 3 μM is 0.8. Moreover, the pIC50 in series [1] is 7.10.
The matching figures for `[2H]C([2H])([2H])NC(=O)c1nnc(NC(=O)C2CC2)cc1Nc1cc(C(=O)OC(C)C)cc(-c2cnn(C)n2)c1OC` [Example 34, isopropyl 3-((6-(cyclopropanecarboxamido)-3-((methyl-d3)carbamoyl)pyridazin-4-yl)amino)-4-methoxy-5-(2-methyl-2H-1,2,3-triazol-4-yl)benzoate]: 20.9 ×10⁻⁶ cm/s, 0.3 and 6.80.
The matching figures for `[2H]C([2H])([2H])NC(=O)c1nnc(NC(=O)C2CC2)cc1Nc1cc(COC)cc(-c2cnn(C)n2)c1OC` [Example 35, 6-(Cyclopropanecarboxamido)-4-((2-methoxy-5-(methoxymethyl)-3-(2-methyl-2H-1,2,3-triazol-4-yl)phenyl)amino)-N-(methyl-d3)pyridazine-3-carboxamide]: 42.9 ×10⁻⁶ cm/s, 0.6 and 7.70.
The matching figures for `[2H]C([2H])([2H])NC(=O)c1nnc(NC(=O)C2CC2(C)C)cc1Nc1nccc(-c2cnn(C)n2)c1OC` (stereo not drawn) [Example 38, 6-(2,2-dimethylcyclopropane-1-carboxamido)-4-((3-methoxy-4-(2-methyl-2H-1,2,3-triazol-4-yl)pyridin-2-yl)amino)-N-(methyl-d3)pyridazine-3-carboxamide]: 33 ×10⁻⁶ cm/s, 0.4 and 6.36.
Consider `[2H]C([2H])([2H])NC(=O)c1nnc(NC(=O)N(C)C)cc1Nc1nccc(-c2cnn(C)n2)c1OC` [Example 39, 6-(3,3-dimethylureido)-4-((3-methoxy-4-(2-methyl-2H-1,2,3-triazol-4-yl)pyridin-2-yl)amino)-N-(methyl-d3)pyridazine-3-carboxamide], for which, in the series “in vitro”, the apparent permeability from apical to basolateral (Papp A→B) at 2 h, 3 μM stood at 18.8 ×10⁻⁶ cm/s and the efflux ratio at 2 h, 3 μM is 0.4. Also, in series [1], the pIC50 was 6.38.
The matching figures for `[2H]C([2H])([2H])NC(=O)c1nnc(NC(=O)[C@H]2C[C@H]2C)cc1Nc1nccc(-c2cnn(C)n2)c1OC` [Example 40, 4-((3-methoxy-4-(2-methyl-2H-1,2,3-triazol-4-yl)pyridin-2-yl)amino)-N-(methyl-d3)-6-((1S,2R)-2-methylcyclopropane-1-carboxamido)pyridazine-3-carboxamide]: 25.9 ×10⁻⁶ cm/s, 0.8 and 7.40.

As usually defined, the Papp A→B is how fast a substance crosses the layer from the apical side. Read a low Papp A→B as slow passage. By efflux ratio is commonly meant a quotient of directional permeabilities that is used to spot active efflux. In general, pIC50 refers to the negative decadic logarithm of the IC50, by convention in mol/L.
